Laboratory results taken from US20250144250A1, “PH-SENSITIVE FLUOROPHORES” (The General Hospital Corporation, priority 2022, published 2025).

Experiments:
[1] = Measurement of optophysical properties (absorbance, fluorescence emission, quantum yield, pH dependence); assay type: physicochemical; settings: for Abs λMax / Em λMax / QY (quantum yield) / ε (extinction coefficient): pH 7.4
Protocol: Measurement of optophysical properties: Absorbance and fluorescence emission spectra of the series of NIR fluorophores were measured using fiber optic HR2000 absorbance (200-1100 nm) and USB2000FL fluorescence (350-1000 nm) spectrometers (Ocean Optics, Dunedin, FL). NIR excitation was provided by a 655 nm red laser pointer (Opcom Inc., Xiamen, China) set to 5 mW and coupled through a 300 μm core diameter, NA 0.22 fiber (Fiberguide Industries, Stirling, NJ). To determine the pH dependence of the fluorescence signal, optical measurements were performed at 37° C. in PBS, pH 4.0-7.4 or 100% FBS buffered with 50 mM HEPES, pH 4.0-7.4. The pH of the solutions was adjusted as appropriate with NaOH and HCl using a pH spear tester (Thermo Scientific). For fluorescence quantum yield (QY) measurements, indocyanine green (ICG) in DMSO (QY=13%) was used as a calibration standard to measure the fluorescence QY under conditions of matched absorbance at 765 nm. In silico calculations of the partition coefficient (LogP and LogD at pH 7.4), surface molecular charge, hydrophobicity, hydrogen bond acceptors/donors (HBA/HBD), the acid dissociation constant (pKa), and topological polar surface area (TPSA) were calculated using Marvin and JChem calculator plugins (ChemAxon, Budapest, Hungary). Theoretical calculations of HOMO and LUMO energy levels of fluorophores were performed based on density functional theory (DFT) with a 6-311 G basis set using Spartan 18 software (Wavefunction, Irvine, CA). […]

[2] = tested on: peritoneal dissemination of ID8 ovarian cancer; assay: Intraoperative NIR imaging in mouse model of peritoneal dissemination of ovarian cancer; assay type: in vivo, mice; settings: for TBR (tumor to background ratio): against normal pancreas
Protocol: Intraoperative NIR imaging: Seven-week-old female C57BL/6 mice were purchased from the Jackson Laboratory (Bar Harbor, ME) and housed in an AAALAC-certified facility at Massachusetts General Hospital (MGH). All animal procedures were performed in accordance with the Public Health Service Policy on Humane Care of Laboratory Animals and approved by the MGH IACUC (protocol #2016N000136). To establish a murine model of peritoneal dissemination of ovarian cancer, mice were injected intraperitoneally with 5×10^6 cells in 100 μL saline. In this model, macroscopic metastatic intraperitoneal nodules appear reproducibly at approximately 90 d. To perform NIR fluorescence imaging, mice were fed chlorophyll-free mouse chow (VWR International) at least 5 d prior to imaging to minimize autofluorescence. For in vivo imaging of ovarian cancer, animals were anesthetized with 100 mg/kg ketamine and 10 mg/kg xylazine subcutaneously (Webster Veterinary, Fort Devens, MA). Following anesthesia, a midline incision was made to expose the abdominal cavity. To evaluate in vivo tumor targetability of the NIR fluorophores, mice were intraperitoneally injected with 20 nmol of ovarian cancer-targeted NIR fluorophores dissolved in 100 μL saline containing 5 wt/v % BSA. The abdominal cavity was opened with a midline incision, and NIR images were obtained over 4 h of the exposed abdominal cavity. For NIR fluorescence imaging, we used a custom-built real-time intraoperative NIR imaging system as described previously. In this study, a 760 nm excitation was used at a fluence rate of 4 mW/cm^2, with white light (400-650 nm; 40,000 lux). Color and NIR fluorescence images were acquired simultaneously with custom software at rates up to 15 Hz over a 10 cm diameter field-of-view (FOV). Pseudo-colored lime green was used for NIR fluorescence in the color-NIR merged images. The imaging system was positioned at a distance of 9 inches from the surgical field. For all real-time intraoperative imaging, a standardized imaging protocol was used during and after the operation. General FOV (5 cm in dia.) was used to include the pancreas, head, duodenum, liver, and kidneys of a mouse, while closeup FOV (3.3 cm in dia.) included the pancreas, head, and duodenum. Color and NIR fluorescence images were taken simultaneously. Real-time fluorescence signal in tumors (Tu) and tumor-to-background ratio (TBR) compared to neighboring tissue was obtained over the period of imaging, and the fluorescence intensity was plotted to evaluate in vivo molecular biodistribution and clearance. All images were obtained using the same exposure time. Mice were euthanized 4 h post-injection with CO2 inhalation, and tumor tissues and the major organs, including the heart, lung, liver, pancreas, spleen, kidney, duodenum, intestine, muscle, and adnexa, were removed for ex vivo imaging and histological examination. NIR signals from resected tissues were imaged using the FLARE imaging system. The TBR was calculated using the same formula, with IT representing the intensity of the tumor tissue and IB representing the signal intensity of the surrounding tissue over the imaging period.
Evaluation of in vivo efficacy of NIR fluorophores for fluorescence-guided surgery (FGS): Having confirmed the pH sensitivity and tumor cell uptake of PH08 in vitro, we next evaluated the in vivo performance of the pH sensing NIR fluorophores in a mouse model of ovarian cancer. […] In this model, approximately 12 week post-peritoneal injection of ID8 cells, numerous nodules were observed on the peritoneum. These small nodules (<1 mm) are extremely difficult to localize and visualize in the surgical field. Thus, this model was suitable to test the performance of this fluorophore. For imaging of ovarian cancer, 20 nmol of PH08 was administered intraperitoneally. The abdominal cavity was then imaged on the custom-built imaging system. […]

CCN1/C(=C/C=C2\CCCC(/C=C/C3=[N+](CC)c4ccccc4C3(C)C)=C2c2ccccc2)C(C)(C)c2ccccc21 [PH03, 1-Ethyl-2-((E)-2-((E)-6-(2-((E)-1-ethyl-3,3-dimethylindolin-2-ylidene)ethylidene)-3,4,5,6-tetrahydro-[1,1′-biphenyl]-2-yl)vinyl)-3,3-dimethyl-3H-indol-1-ium iodide]
optical response to pH [1]: little to no change in response to pH
Abs λMax [1]: 765 nm
Em λMax [1]: 785 nm
QY (quantum yield) [1]: 21.7%
ε (extinction coefficient) [1]: 364,800 M^−1cm^−1
TBR (tumor to background ratio) [2]: ++ (++, 2-3)
TBR in words ([2]; up to 4 h after administration, compared with PH08): smaller TBRs

CCN1/C(=C/C=C2\CCCC(/C=C/C3=[N+](CC)c4ccccc4C3(C)C)=C2N2CCNCC2)C(C)(C)c2ccccc21 [PH08]
optical response to pH [1]: increases its fluorescence in mildly acidic conditions between pH 7.0 and 4.0
absorbance wavelength before red-shift ([1]; neutral pH (7.4)): 710 nm
molecular absorbance ε at 760 nm ([1]; neutral pH condition (pH=7.4)): 92,600 M^−1 cm^−1
absorbance wavelength after red-shift ([1]; pH 4.0): 765 nm
Abs λMax [1]: 710 nm
Em λMax [1]: 794 nm
QY (quantum yield) [1]: 16.0%
ε (extinction coefficient) [1]: 43,800 M^−1cm^−1
molecular absorbance ε at 760 nm ([1]; pH decreases to 4.0): 134,500 M^−1 cm^−1
time to clear visualization of small tumors after injection ([2]; 20 nmol intraperitoneally): ≤ 10 min
TBR against surrounding normal tissues and other major organs ([2]; 20 nmol intraperitoneally, within 10 min of injection): ~6
TBR (tumor to background ratio) [2]: +++ (+++, 3-5)
retention / preservation of signals ([2]; post-topical application): at least 4 h
TBR ([2]; up to 4 h after injection): > 5.5
fluorescence recovery / increase time ([2]; upon topical application): < 10 min
